Measurements reported in patent US12076340B2, “Use of trientine to deliver copper to ischemic tissue” (INNOLIFE CO., LTD., priority 2015, dated 2024).

Assays:
[1] = test system: Sprague-Dawley rats with pathologic cardiac hypertrophy
Experimental: This example describes an in vivo experiment for assessing efficacy of the trientine therapy in Sprague-Dawley rats with pathologic cardiac hypertrophy. The rat model of pathologic cardiac hypertrophy was established by an ascending aortic constriction operation.
The rats were sedated by intraperitoneal injection of 10% chloral hydrate ([…]) for echocardiography measurements. At 4 months after the aortic constriction operation and at 1, 3 and 5 weeks after the trientine treatment, a series of echocardiograms were performed using an 11.5-MHz transducer (Vivid 7 Dimension, GE). Interventricular septum depth (IVSD) and left ventricular posterior wall depth (LVPWD) were obtained using two-dimensional mode by taking measurements of the short-axis cross-sectional areas and the left ventricular length.
The ejection fraction (EF) and shortening fraction (FS) of the left ventricular were evaluated with the Simpson's single-plane method. Left-ventricular end-diastolic volume (LVEDV), end-systolic volume (LVESV), end-diastolic interior diameter (LVIDd) and end-systolic interior diameter (LVIDs) were directly recorded. EF and FS were calculated according to the following formulas: EF=(LVEDV−LVESV)/LVEDV×100%, FS=(LVIDd−LVIDs)/LVIDd×100%
(§1) The aortic ascending constriction (AAC) group was divided into three groups: a control group (NS group) and two trientine treatment groups (Tr(H) group and Tr(L) group). Rats in the sham group were subjected to the same surgical procedure except for the steps of the aortic ascending constriction. The sham group rats were also divided into three groups: a control group (NS group) and two trientine treatment groups (Tr(H) group and Tr(L) group). Rats in the control groups were treated with a saline solution. Trientine was administered orally twice a day in the trientine treatment groups. Two doses of trientine (dose calculated based on trientine dihydrochloride) were administered, […]. The treatment was continued for 6 weeks.
(§2) Cardiac morphology and functions were evaluated by echocardiography, and plasma copper concentrations were measured (i.e. blood detection) to assess therapeutic efficacy of the trientine treatments according to the schedule shown in FIG. 7.

[2] = test system: Sprague-Dawley rats with pathologic cardiac hypertrophy; details: AAC rats, trientine treatment for 6 weeks, AAC-Tr(H) and AAC-Tr(L) combined; FIG. 10A
Experimental: as §1, §2
Tissue samples were freshly frozen and stored at −80° C. before lyophilization. […] Ultrapure water was added to each vessel to dilute HNO3 to 2% for subsequent analyses of copper concentrations.

[3] = test system: Rhesus monkey model of heart failure; details: 18 mg/kg/day oral two times daily, eight weeks; untreated group decreased; FIG. 12
Experimental: The ejection fraction (EF) of the left ventricular was evaluated with the Simpson's single-plane method. Left-ventricular end-diastolic volume (LVEDV) and end-systolic volume (LVESV) were directly recorded, and EF was calculated using as follows: EF=(LVEDV−LVESV)/LVEDV×100%.
(§3) Trientine treatment was subsequently conducted. In the trientine-treated group, trientine was administered to each monkey orally two times daily. The dose of trientine was 18 mg/kg/day. This treatment was continued for eight weeks. […] Cardiac functions and morphology were evaluated according to the schedule shown in FIG. 11 to assess therapeutic efficacy of trientine.

[4] = test system: Rhesus monkey model of heart failure; details: 18 mg/kg/day oral, eight weeks; FIG. 13
Experimental: as §3
Tissue samples were freshly frozen and stored at −80° ° C. before lyophilization. […] Ultrapure water was added to each vessel to dilute HNO3 to 2% for subsequent analyses of copper concentrations. Copper concentrations were determined by graphite furnace atomic absorption spectrophotometry (ICE3500, Thermo) according to the program shown in Table 1 of Example 3.
Copper concentration in the myocardium was determined by atomic absorption spectroscopy.

[5] = test system: mouse model of myocardial ischemic infarction; details: 4 weeks
Experimental: (§4) In this experiment, a mouse model of myocardial ischemic infarction was established by a permanent coronary artery ligation operation.
(§5) Trientine treatment was administered to four groups of modelized mice via intragastric route twice a day at a dose of 16.75, 33.49, 55.94, or 78.25 mg/kg per day. This treatment was continued for 4 weeks.
Cardiac functions were evaluated by echocardiography to assess therapeutic efficacy of trientine. All mice were subjected to transthoracic echocardiographic evaluation with a 12 MHz transducer (i13L, Vivid7, GE Ultrasound). The ejection fraction (EF) of the left ventricular was evaluated with the Simpson's single-plane method. Left-ventricular end-diastolic volume (LVEDV) and end-systolic volume (LVESV) were directly recorded, and EF was calculated using as follows: EF=(LVEDV−LVESV)/LVEDV×100%.

[6] = test system: mouse model of myocardial ischemic infarction
Experimental: as §4, §5
Tissue samples were freshly frozen and stored at −80° C. before lyophilization. […] Ultrapure water was added to each vessel to dilute HNO3 to 2% for subsequent analyses of copper concentrations. Copper concentrations were determined by graphite furnace atomic absorption spectrophotometry (ICE3500, Thermo) according to the program shown in Table 1 of Example 3.

[7] = AAC rats, oral twice a day, after 3 weeks of treatment

NCCNCCNCCN [trientine, triethylenetetramine]
IVSD as compared to the sham groups ([1]; AAC rats treated for 5 weeks): nearly normal
LVPWD as compared to the sham groups ([1]; AAC rats treated for 5 weeks): nearly normal
interventricular septum depth (IVSD) [1, 7]: decreased significantly
left ventricular posterior wall depth (LVPWD) [1, 7]: decreased significantly
IVSD values over time (continuous monitoring) ([1]; treated AAC groups, control group increased steadily, FIG. 8A): significantly downward trend
LVPWD values over time (continuous monitoring) ([1]; treated AAC groups, control group increased steadily, FIG. 8B): significantly downward trend
left ventricular ejection fraction (EF) ([1]; trientine-treated groups, untreated groups showed significant downward trend, FIG. 9A): did not fluctuate very significantly
left ventricular shortening fraction (FS) ([1]; trientine-treated groups, untreated groups showed significant downward trend, FIG. 9B): did not fluctuate very significantly
copper concentrations in the heart tissues [2]: increased
left ventricular ejection fraction [3]: increased significantly
copper concentration, border zone, compared to untreated group [4]: increased significantly
copper concentration, infarcted area, compared to untreated group [4]: increased significantly
copper concentration, remote areas, treated vs untreated group [4]: comparable
dose at which the improvement ratio of ejection fraction reached a peak ([5]; doses tested 16.75, 33.49, 55.94, 78.25 mg/kg per day): 33.49 mg/kg per day
improvement of left ventricular ejection fraction at higher doses ([5]; intragastric twice a day, FIG. 15): decreased
cardiac function as measured by left ventricular ejection fraction, lower doses ([5]; intragastric twice a day, 16.75-78.25 mg/kg per day, FIG. 15): improved
dose at which copper content in the infarct area was the highest ([6]; doses tested 16.75, 33.49, 55.94, 78.25 mg/kg per day, 4 weeks): 33.49 mg/kg per day
copper content of the infarcted area or ejection fraction at higher doses than 33.49 mg/kg per day ([6]; higher trientine doses tested (55.94, 78.25 mg/kg per day)): no further improvement
copper concentration in the infarcted area ([6]; intragastric twice a day, 4 weeks, FIG. 16): increased significantly
